Measurements published in patent US7452905B2, “Phenylalanine derivatives” (Ajinomoto Co., Inc., priority 2000, dated 2008).

Molecular target: T1, integrin α4β7 (Homo sapiens, UniProt P13612+P26010)
T1 construct: lymphoma cell strain RPMI-8866 of human B cells, known to express integrin α4β7; endogenous in cells; host or cells: RPMI-8866
T1 sequence (P13612 34-1032): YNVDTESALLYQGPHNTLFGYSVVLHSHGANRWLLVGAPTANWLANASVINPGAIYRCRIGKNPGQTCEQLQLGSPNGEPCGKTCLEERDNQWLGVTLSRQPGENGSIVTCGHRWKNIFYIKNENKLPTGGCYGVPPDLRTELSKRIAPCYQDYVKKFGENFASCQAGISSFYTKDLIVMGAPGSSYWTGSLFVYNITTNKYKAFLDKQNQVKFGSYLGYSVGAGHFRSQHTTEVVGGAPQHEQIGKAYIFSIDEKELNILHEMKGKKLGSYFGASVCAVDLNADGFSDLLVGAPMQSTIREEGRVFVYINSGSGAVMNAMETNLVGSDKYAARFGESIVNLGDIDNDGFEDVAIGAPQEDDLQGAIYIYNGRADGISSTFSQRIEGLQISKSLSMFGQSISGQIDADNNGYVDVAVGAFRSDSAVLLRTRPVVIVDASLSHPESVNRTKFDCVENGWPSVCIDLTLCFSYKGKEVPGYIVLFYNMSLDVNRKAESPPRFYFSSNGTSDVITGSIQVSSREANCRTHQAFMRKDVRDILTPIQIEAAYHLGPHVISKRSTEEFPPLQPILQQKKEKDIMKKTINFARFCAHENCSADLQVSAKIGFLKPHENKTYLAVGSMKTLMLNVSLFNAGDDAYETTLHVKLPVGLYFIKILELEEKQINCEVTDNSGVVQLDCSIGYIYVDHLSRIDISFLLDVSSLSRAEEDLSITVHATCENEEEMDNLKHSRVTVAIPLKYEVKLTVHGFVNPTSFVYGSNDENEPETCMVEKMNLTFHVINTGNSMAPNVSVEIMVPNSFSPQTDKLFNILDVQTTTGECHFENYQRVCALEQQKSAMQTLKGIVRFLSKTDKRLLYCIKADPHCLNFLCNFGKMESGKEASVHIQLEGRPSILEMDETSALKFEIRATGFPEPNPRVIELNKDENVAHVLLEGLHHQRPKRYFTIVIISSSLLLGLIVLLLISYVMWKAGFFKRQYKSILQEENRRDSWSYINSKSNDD
T1 sequence (P26010 20-798): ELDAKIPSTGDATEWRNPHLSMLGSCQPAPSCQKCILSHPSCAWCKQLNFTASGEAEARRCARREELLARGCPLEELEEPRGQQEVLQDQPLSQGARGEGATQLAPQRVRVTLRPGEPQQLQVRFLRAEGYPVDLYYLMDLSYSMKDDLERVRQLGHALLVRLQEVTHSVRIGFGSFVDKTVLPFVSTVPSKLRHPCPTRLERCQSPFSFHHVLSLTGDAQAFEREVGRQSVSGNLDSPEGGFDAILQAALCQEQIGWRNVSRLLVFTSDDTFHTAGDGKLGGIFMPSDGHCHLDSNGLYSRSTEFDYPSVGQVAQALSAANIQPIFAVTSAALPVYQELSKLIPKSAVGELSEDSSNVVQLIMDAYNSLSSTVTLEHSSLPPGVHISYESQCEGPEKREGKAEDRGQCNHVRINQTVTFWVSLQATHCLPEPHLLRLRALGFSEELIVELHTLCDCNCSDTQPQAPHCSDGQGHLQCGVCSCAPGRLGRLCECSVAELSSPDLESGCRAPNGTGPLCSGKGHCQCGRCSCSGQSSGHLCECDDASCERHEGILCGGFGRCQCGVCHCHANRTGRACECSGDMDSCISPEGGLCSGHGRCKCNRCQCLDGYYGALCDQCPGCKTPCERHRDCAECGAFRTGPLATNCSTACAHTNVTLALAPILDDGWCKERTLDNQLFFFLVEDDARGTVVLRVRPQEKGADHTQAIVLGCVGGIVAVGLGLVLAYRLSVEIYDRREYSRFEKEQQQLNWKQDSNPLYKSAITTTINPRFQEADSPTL
Assay: VCAM antagonistic activity (VCAM-1/α4β7 binding assay), RPMI-8866 cells binding to VCAM-1
Type: cell-based
Settings: RPMI-8866 cells binding to recombinant human VCAM-1, binding buffer with 4 mM MnCl2; 50% binding inhibition; read-out: Antagonistic Activity IC50 α 4 β 7/VCAM
Protocol: VCAM Antagonistic Activity (VCAM-1/α4β7 Binding Assay)
The capacity of a test substance antagonistic to the binding of lymphoma cell strain RPMI-8866 of human B cells, known to express integrin α4β7, to VCAM-1 was determined. 100 μl/well of a solution (500 ng/ml) of recombinant human VCAM-1 (R & D systems) solution diluted with buffer A (0.1 M NaHCO3, pH 9.6) was added to a micro titer plate having 96 wells (Nunc Maxisorp). After the incubation at 4° C. overnight, unbound VCAM-1 was removed by washing once with PBS. After completion of the washing, a buffer (buffer B) obtained by diluting Block Ace (Dainippon Pharmaceutical Co., Ltd.) with PBS to ¼ concentration was added in an amount of 150 μl/well. After the incubation at room temperature for 1 hour, buffer B was removed and the plate was washed with PBS once.
RPMI-8866 cells were incubated in Dulbecco modified Eagle medium containing 10 μg/ml of Calcein-AM (Wako Pure Chemical Industries, Ltd.) (SIGMA, hereinafter referred to as “DMEM”) at 37° C. for 30 minutes to label with fluorescence. The cells were again suspended in a binding buffer (20 mM HEPES, DMEM containing 0.1% BSA) containing 4 mM of MnCl2.
50 μl of a test substance of various concentrations obtained by the dilution with the binding buffer was added to the plate. Immediately thereafter, 50 μl (final volume: 100 μl/well) of the fluorescent RPMI-8866 cells (4×10^6 cells/ml) were added thereto, and they were incubated at room temperature for 30 minutes. After the shaking on a plate shaker (IKA MTS-4) at 800 rpm for 30 seconds, the solution was immediately removed to remove the unbound cells. The fluorescence quantity of the bound cells remaining in the wells was determined with a fluorescent plate reader (Wallac 1420 ARVO multi-label counter) (filter excitation wave length: 485 nm, emission wave length: 535 nm). The fluorescent strength thus obtained is proportional to the number of RPMI-8866 cells bound to VCAM-1 and remaining on the plate. The binding rate of each test material in various concentrations was determined while the fluorescent strength of the test material-free well was determined to be 100%. The concentration IC50 for the 50% binding inhibition was calculated.

Row | IC50 [nM] | SMILES
1 | 9.7 | O=C(N[C@@H](Cc1ccc(N2C(=O)c3ccccc3C2=O)cc1)C(=O)O)c1c(Cl)cccc1Cl [Example 1]
2 | 11 | Cc1ccc2c(c1)C(=O)N(c1ccc(C[C@H](NC(=O)c3c(Cl)cccc3Cl)C(=O)O)cc1)C2=O [Example 6]
3 | 24 | O=C(N[C@@H](Cc1ccc(N2C(=O)c3ccc([N+](=O)[O-])cc3C2=O)cc1)C(=O)O)c1c(Cl)cccc1Cl [Example 9]
4 | 34 | O=C(N[C@@H](Cc1ccc(N2C(=O)Cc3ccccc3C2=O)cc1)C(=O)O)c1c(Cl)cccc1Cl [Example 15]
5 | 21 | O=C(N[C@@H](Cc1ccc(N2C(=O)c3cccc4cccc(c34)C2=O)cc1)C(=O)O)c1c(Cl)cccc1Cl [Example 16]
6 | 140 | O=C(N[C@@H](Cc1ccc(N2Cc3ccccc3C2=O)cc1)C(=O)O)c1c(Cl)cccc1Cl [Example 17]
7 | 160 | O=C(N[C@@H](Cc1ccc(N2CC=CC2=O)cc1)C(=O)O)c1c(Cl)cccc1Cl [Example 25]
8 | 80 | O=C(N[C@@H](Cc1ccc(N2CC=CCC2=O)cc1)C(=O)O)c1c(Cl)cccc1Cl [Example 26]
9 | 73 | O=C(N[C@@H](Cc1ccc(N2CC=CCCC2=O)cc1)C(=O)O)c1c(Cl)cccc1Cl [Example 27]
10 | 46 | Cc1ccc(C)c2c1C(=O)N(c1ccc(C[C@H](NC(=O)c3c(Cl)cccc3Cl)C(=O)O)cc1)C2=O [Example 30]
11 | 8.9 | CN(C)C(=O)c1ccc2c(c1)C(=O)N(c1ccc(C[C@H](NC(=O)c3c(Cl)cccc3Cl)C(=O)O)cc1)C2=O [Example 33]
12 | 5.8 | O=C(N[C@@H](Cc1ccc(N2C(=O)C3=C(CCCC3)C2=O)cc1)C(=O)O)c1c(Cl)cccc1Cl [Example 37]
13 | 13 | O=C(N[C@@H](Cc1ccc(N2C(=O)C3=C(SCCS3)C2=O)cc1)C(=O)O)c1c(Cl)cccc1Cl [Example 38]
14 | 18 | O=C(N[C@@H](Cc1ccc(N2C(=O)[C@@H]3CCCC[C@H]3C2=O)cc1)C(=O)O)c1c(Cl)cccc1Cl [Example 40]
15 | 21 | O=C(N[C@@H](Cc1ccc(N2C(=O)[C@@H]3[C@H](C2=O)[C@@H]2C=C[C@H]3C2)cc1)C(=O)O)c1c(Cl)cccc1Cl [Example 42]
16 | 43 | CC1CCC2C(=O)N(c3ccc(C[C@H](NC(=O)c4c(Cl)cccc4Cl)C(=O)O)cc3)C(=O)C2C1 (some centres unmarked) [Example 43]
17 | 39 | O=C(N[C@@H](Cc1ccc(N2C(=O)[C@@H]3[C@H](C2=O)[C@@H]2C=C[C@H]3CC2)cc1)C(=O)O)c1c(Cl)cccc1Cl [Example 44]
18 | 19 | O=C(N[C@@H](Cc1ccc(N2C(=O)[C@H]3CC=CC[C@H]3C2=O)cc1)C(=O)O)c1c(Cl)cccc1Cl [Example 45]

Row | IC50 [nM] | SMILES
19 | 42 | O=C(N[C@@H](Cc1ccc(N2C(=O)C3CC3C2=O)cc1)C(=O)O)c1c(Cl)cccc1Cl (some centres unmarked) [Example 46]
20 | 92 | O=C(N[C@@H](Cc1ccc(N2C(=O)[C@H]3CC[C@H](c4ccccc4)C[C@H]3C2=O)cc1)C(=O)O)c1c(Cl)cccc1Cl [Example 47]
21 | 21 | O=C(N[C@@H](Cc1ccc(N2C(=O)CC3(CCCC3)CC2=O)cc1)C(=O)O)c1c(Cl)cccc1Cl [Example 48]
22 | 60 | CC1(C)[C@H]2CC[C@]1(C)C(=O)N(c1ccc(C[C@H](NC(=O)c3c(Cl)cccc3Cl)C(=O)O)cc1)C2=O [Example 49]
23 | 10 | Cc1cccc2c1C(=O)N(c1ccc(C[C@H](NC(=O)c3c(Cl)cncc3Cl)C(=O)O)cc1)C2=O [Example 59]
24 | 230 | Nc1cccc2c1C(=O)N(c1ccc(C[C@H](NC(=O)c3c(Cl)cccc3Cl)C(=O)O)cc1)C2=O [Example 71]
25 | 8.5 | CCOc1cccc2c1C(=O)N(c1ccc(C[C@H](NC(=O)c3c(Cl)cccc3Cl)C(=O)O)cc1)C2=O [Example 73]
26 | 110 | O=C(N[C@@H](Cc1ccc(N2C(=O)c3cccc(OCc4ccccc4)c3C2=O)cc1)C(=O)O)c1c(Cl)cccc1Cl [Example 74]
27 | 55 | CCCCOc1cccc2c1C(=O)N(c1ccc(C[C@H](NC(=O)c3c(Cl)cccc3Cl)C(=O)O)cc1)C2=O [Example 75]
28 | 73 | O=C(N[C@@H](Cc1ccc(N2C(=O)c3ccc(O)cc3C2=O)cc1)C(=O)O)c1c(Cl)cccc1Cl [Example 77]
29 | 42 | COc1ccc2c(c1)C(=O)N(c1ccc(C[C@H](NC(=O)c3c(Cl)cccc3Cl)C(=O)O)cc1)C2=O [Example 78]
30 | 86 | CCOc1ccc2c(c1)C(=O)N(c1ccc(C[C@H](NC(=O)c3c(Cl)cccc3Cl)C(=O)O)cc1)C2=O [Example 79]
31 | 80 | O=C(N[C@@H](Cc1ccc(N2C(=O)c3ccc(OCc4ccccc4)cc3C2=O)cc1)C(=O)O)c1c(Cl)cccc1Cl [Example 80]
32 | 900 | O=C(N[C@@H](Cc1ccc(N2C(=O)Cc3ccccc3CC2=O)cc1)C(=O)O)c1c(Cl)cccc1Cl [Example 82]
33 | 0.55 | Cc1cccc2c1C(=O)N(c1ccc(C[C@H](NC(=O)c3c(Cl)cc(-c4nnn[nH]4)cc3Cl)C(=O)O)cc1)C2=O [Example 83, (2S)-2-(2,6-dichloro-4-tetrazolyl-benzoylamino)-3-[4-(4-methyl-1,3-dioxo-1,3-dihydroisoindole-2-yl)phenyl] Propionic Acid]
34 | 0.6 | Cc1cccc2c1C(=O)N(c1ccc(C[C@H](NC(=O)c3c(Cl)cc(NS(C)(=O)=O)cc3Cl)C(=O)O)cc1)C2=O [Example 84]
35 | 39 | CC(=O)C1Cc2ccccc2C(=O)N1c1ccc(C[C@H](NC(=O)c2c(Cl)cccc2Cl)C(=O)O)cc1 (some centres unmarked) [Example 86]
